Reference: the supplement of paper PMC9763283
Structures can show the parent of a compound that is named as a salt.

How the values were obtained:
Test in all cases: area under growth-rate inhibition curve (AUC GRI) (dimensionless (GR-based AUC)); higher = less growth inhibition
Conditions in all cases: exposure time: 72 h; concentrations: 0.1, 1, 10 uM
BT474-LTR = tested on: BT474-LTR
Outline: (§1)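 The area under the growth-rate inhibition curve was measured in six breast cancer cell line models, covering triple-negative lines and HER2+ lines, both parental and resistant to a two-drug combination. Cells were exposed to compound at 0.1, 1 or 10 µM for 72 h, fixed in 4% paraformaldehyde, and nuclei were stained with Hoechst 33342 or DAPI for imaging and counting. Day 0 plates, untreated Day 3 plates and DMSO controls served to correct growth across 2 biological replicates.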

SKBR3-LTR = tested on: SKBR3-LTR
Outline: as §1

BT474-P = tested on: BT474-P
Outline: as §1

MDA-MB-231 = tested on: MDA-MB-231
Outline: as §1

MDA-MB-468 = tested on: MDA-MB-468
Outline: as §1

SKBR3-P = tested on: SKBR3-P
Outline: as §1

Structure (SMILES): CN1CCC(=C2c3ccccc3CCn3c(C=O)cnc32)CC1 [Alcaftadine]
- area under growth-rate inhibition curve (BT474-LTR): 1.04
- area under growth-rate inhibition curve (SKBR3-LTR): 1.06
- area under growth-rate inhibition curve (BT474-P): 1
- area under growth-rate inhibition curve (MDA-MB-231): 1.04
- area under growth-rate inhibition curve (MDA-MB-468): 1.03
- area under growth-rate inhibition curve (SKBR3-P): 1.02

Structure (SMILES): O=c1ncnc2[nH][nH]cc1-2 [Allopurinol]
- area under growth-rate inhibition curve (BT474-LTR): 1.1
- area under growth-rate inhibition curve (SKBR3-LTR): 1.07
- area under growth-rate inhibition curve (BT474-P): 1.06
- area under growth-rate inhibition curve (MDA-MB-231): 1.03
- area under growth-rate inhibition curve (MDA-MB-468): 1.06
- area under growth-rate inhibition curve (SKBR3-P): 1.03

Structure (SMILES): CNC(=O)[C@@H](c1ccccc1)N1CCc2cc(OC)c(OC)cc2[C@@H]1CCc1ccc(C(F)(F)F)cc1.Cl [Almorexant HCl]
- area under growth-rate inhibition curve (BT474-LTR): 1.07
- area under growth-rate inhibition curve (SKBR3-LTR): 0.988
- area under growth-rate inhibition curve (BT474-P): 0.976
- area under growth-rate inhibition curve (MDA-MB-231): 1.01
- area under growth-rate inhibition curve (MDA-MB-468): 1
- area under growth-rate inhibition curve (SKBR3-P): 0.977

Structure (SMILES): CN(C)CCc1c[nH]c2ccc(CS(=O)(=O)N3CCCC3)cc12.O=C(O)CC(O)C(=O)O [Almotriptan Malate]
- area under growth-rate inhibition curve (BT474-LTR): 1.09
- area under growth-rate inhibition curve (SKBR3-LTR): 1.06
- area under growth-rate inhibition curve (BT474-P): 1.02
- area under growth-rate inhibition curve (MDA-MB-231): 1.02
- area under growth-rate inhibition curve (MDA-MB-468): 1.04
- area under growth-rate inhibition curve (SKBR3-P): 1.02

Structure (SMILES): C=CCC1(O)CCC2C3CCC4=CC(=O)CCC4=C3C=CC21C (stereo unspecified) [Altrenogest]
- area under growth-rate inhibition curve (BT474-LTR): 1.01
- area under growth-rate inhibition curve (SKBR3-LTR): 1.08
- area under growth-rate inhibition curve (BT474-P): 0.953
- area under growth-rate inhibition curve (MDA-MB-231): 1.03
- area under growth-rate inhibition curve (MDA-MB-468): 1
- area under growth-rate inhibition curve (SKBR3-P): 1.04

Structure (SMILES): C[C@H]1CN(C[C@H](Cc2ccccc2)C(=O)NCC(=O)O)CC[C@@]1(C)c1cccc(O)c1 [Alvimopan]
- area under growth-rate inhibition curve (BT474-LTR): 1.03
- area under growth-rate inhibition curve (SKBR3-LTR): 1.04
- area under growth-rate inhibition curve (BT474-P): 0.995
- area under growth-rate inhibition curve (MDA-MB-231): 1.03
- area under growth-rate inhibition curve (MDA-MB-468): 1.03
- area under growth-rate inhibition curve (SKBR3-P): 1.02

Structure (SMILES): Cl.NC12CC3CC(CC(C3)C1)C2 [Amantadine HCl]
- area under growth-rate inhibition curve (BT474-LTR): 1.08
- area under growth-rate inhibition curve (SKBR3-LTR): 1.05
- area under growth-rate inhibition curve (BT474-P): 1.05
- area under growth-rate inhibition curve (MDA-MB-231): 1.03
- area under growth-rate inhibition curve (MDA-MB-468): 1.02
- area under growth-rate inhibition curve (SKBR3-P): 1.05

Structure (SMILES): COC(c1ccccc1)(c1ccccc1)C(Oc1nc(C)cc(C)n1)C(=O)O (stereo unspecified) [Ambrisentan]
- area under growth-rate inhibition curve (BT474-LTR): 1.05
- area under growth-rate inhibition curve (SKBR3-LTR): 1.06
- area under growth-rate inhibition curve (BT474-P): 1.01
- area under growth-rate inhibition curve (MDA-MB-231): 1.05
- area under growth-rate inhibition curve (MDA-MB-468): 1.04
- area under growth-rate inhibition curve (SKBR3-P): 1.03

Structure (SMILES): CC(NC(C)(C)C)C(=O)c1cccc(Cl)c1 (stereo unspecified) [Amfebutamone HCl]
- area under growth-rate inhibition curve (BT474-LTR): 1.03
- area under growth-rate inhibition curve (SKBR3-LTR): 1.03
- area under growth-rate inhibition curve (BT474-P): 1.02
- area under growth-rate inhibition curve (MDA-MB-231): 0.987
- area under growth-rate inhibition curve (MDA-MB-468): 1.01
- area under growth-rate inhibition curve (SKBR3-P): 1.01

Structure (SMILES): CCN1CCCC1CNC(=O)c1cc(S(=O)(=O)CC)c(N)cc1OC (stereo unspecified) [Amisulpride]
- area under growth-rate inhibition curve (BT474-LTR): 0.985
- area under growth-rate inhibition curve (SKBR3-LTR): 0.975
- area under growth-rate inhibition curve (BT474-P): 1.01
- area under growth-rate inhibition curve (MDA-MB-231): 0.988
- area under growth-rate inhibition curve (MDA-MB-468): 1.01
- area under growth-rate inhibition curve (SKBR3-P): 1.02

Structure (SMILES): CN(C)CCC=C1c2ccccc2CCc2ccccc21.Cl [Amitriptyline HCl]
- area under growth-rate inhibition curve (BT474-LTR): 1.08
- area under growth-rate inhibition curve (SKBR3-LTR): 1.09
- area under growth-rate inhibition curve (BT474-P): 1.03
- area under growth-rate inhibition curve (MDA-MB-231): 1.03
- area under growth-rate inhibition curve (MDA-MB-468): 0.997
- area under growth-rate inhibition curve (SKBR3-P): 0.983

Structure (SMILES): COc1ccc(C(=O)N2CCCC2=O)cc1 [Aniracetam]
- area under growth-rate inhibition curve (BT474-LTR): 1.08
- area under growth-rate inhibition curve (SKBR3-LTR): 1
- area under growth-rate inhibition curve (BT474-P): 1.04
- area under growth-rate inhibition curve (MDA-MB-231): 1.01
- area under growth-rate inhibition curve (MDA-MB-468): 1.02
- area under growth-rate inhibition curve (SKBR3-P): 1.01

Structure (SMILES): [Cl-].[H+].c1ccc(CN(CC2=NCCN2)c2ccccc2)cc1 [Antazoline hydrochloride]
- area under growth-rate inhibition curve (BT474-LTR): 1.05
- area under growth-rate inhibition curve (SKBR3-LTR): 1.05
- area under growth-rate inhibition curve (BT474-P): 1.01
- area under growth-rate inhibition curve (MDA-MB-231): 1.03
- area under growth-rate inhibition curve (MDA-MB-468): 1.04
- area under growth-rate inhibition curve (SKBR3-P): 1.03

Structure (SMILES): CCOc1cc([C@@H](CS(C)(=O)=O)N2C(=O)c3cccc(NC(C)=O)c3C2=O)ccc1OC [Apremilast]
- area under growth-rate inhibition curve (BT474-LTR): 1.04
- area under growth-rate inhibition curve (SKBR3-LTR): 1.05
- area under growth-rate inhibition curve (BT474-P): 1.01
- area under growth-rate inhibition curve (MDA-MB-231): 1
- area under growth-rate inhibition curve (MDA-MB-468): 1.03
- area under growth-rate inhibition curve (SKBR3-P): 1.02

Structure (SMILES): COC(=O)C1=CCCN(C)C1.[Br-].[H+] [Arecoline]
- area under growth-rate inhibition curve (BT474-LTR): 1.06
- area under growth-rate inhibition curve (SKBR3-LTR): 1.03
- area under growth-rate inhibition curve (BT474-P): 1.04
- area under growth-rate inhibition curve (MDA-MB-231): 1.03
- area under growth-rate inhibition curve (MDA-MB-468): 0.988
- area under growth-rate inhibition curve (SKBR3-P): 1.02

Structure (SMILES): O=C1CCc2ccc(OCCCCN3CCN(c4cccc(Cl)c4Cl)CC3)cc2N1 [Aripiprazole]
- area under growth-rate inhibition curve (BT474-LTR): 0.955
- area under growth-rate inhibition curve (SKBR3-LTR): 0.996
- area under growth-rate inhibition curve (BT474-P): 0.924
- area under growth-rate inhibition curve (MDA-MB-231): 0.988
- area under growth-rate inhibition curve (MDA-MB-468): 0.863
- area under growth-rate inhibition curve (SKBR3-P): 0.971

Structure (SMILES): CN1CC2c3ccccc3Oc3ccc(Cl)cc3C2C1.O=C(O)C=CC(=O)O (stereo unspecified) [Asenapine]
- area under growth-rate inhibition curve (BT474-LTR): 1.06
- area under growth-rate inhibition curve (SKBR3-LTR): 0.993
- area under growth-rate inhibition curve (BT474-P): 1.01
- area under growth-rate inhibition curve (MDA-MB-231): 1.02
- area under growth-rate inhibition curve (MDA-MB-468): 0.959
- area under growth-rate inhibition curve (SKBR3-P): 0.975

Structure (SMILES): CCC1(c2c[nH]cn2)Cc2ccccc2C1 [Atipamezole hydrochloride]
- area under growth-rate inhibition curve (BT474-LTR): 1.11
- area under growth-rate inhibition curve (SKBR3-LTR): 1.07
- area under growth-rate inhibition curve (BT474-P): 1.04
- area under growth-rate inhibition curve (MDA-MB-231): 1.03
- area under growth-rate inhibition curve (MDA-MB-468): 1.02
- area under growth-rate inhibition curve (SKBR3-P): 0.985

Structure (SMILES): CCC1(c2c[nH]cn2)Cc2ccccc2C1 [Atipamezole]
- area under growth-rate inhibition curve (BT474-LTR): 1.08
- area under growth-rate inhibition curve (SKBR3-LTR): 1.09
- area under growth-rate inhibition curve (BT474-P): 1.04
- area under growth-rate inhibition curve (MDA-MB-231): 1.02
- area under growth-rate inhibition curve (MDA-MB-468): 1.01
- area under growth-rate inhibition curve (SKBR3-P): 1.01

Structure (SMILES): CNCC[C@@H](Oc1ccccc1C)c1ccccc1.Cl [Atomoxetine HCl]
- area under growth-rate inhibition curve (BT474-LTR): 1.09
- area under growth-rate inhibition curve (SKBR3-LTR): 1.05
- area under growth-rate inhibition curve (BT474-P): 1.04
- area under growth-rate inhibition curve (MDA-MB-231): 1.02
- area under growth-rate inhibition curve (MDA-MB-468): 1.01
- area under growth-rate inhibition curve (SKBR3-P): 1.01

Structure (SMILES): CN1C2CCC1CC(OC(=O)C(CO)c1ccccc1)C2 (stereo unspecified) [Atropine]
- area under growth-rate inhibition curve (BT474-LTR): 1.11
- area under growth-rate inhibition curve (SKBR3-LTR): 1.09
- area under growth-rate inhibition curve (BT474-P): 1.04
- area under growth-rate inhibition curve (MDA-MB-231): 1.03
- area under growth-rate inhibition curve (MDA-MB-468): 1.04
- area under growth-rate inhibition curve (SKBR3-P): 1.03

Structure (SMILES): CN1CCC(=C2c3ccccc3CCc3cccnc32)CC1.O=C(O)C=CC(=O)O.O=C(O)C=CC(=O)O [Azatadine dimaleate]
- area under growth-rate inhibition curve (BT474-LTR): 1.12
- area under growth-rate inhibition curve (SKBR3-LTR): 1.01
- area under growth-rate inhibition curve (BT474-P): 1.07
- area under growth-rate inhibition curve (MDA-MB-231): 1.05
- area under growth-rate inhibition curve (MDA-MB-468): 1.05
- area under growth-rate inhibition curve (SKBR3-P): 1.02

Structure (SMILES): CN1CCCC(n2nc(Cc3ccc(Cl)cc3)c3ccccc3c2=O)CC1.[Cl-].[H+] (stereo unspecified) [Azelastine HCl]
- area under growth-rate inhibition curve (BT474-LTR): 1.06
- area under growth-rate inhibition curve (SKBR3-LTR): 1.02
- area under growth-rate inhibition curve (BT474-P): 1.01
- area under growth-rate inhibition curve (MDA-MB-231): 1.02
- area under growth-rate inhibition curve (MDA-MB-468): 0.985
- area under growth-rate inhibition curve (SKBR3-P): 0.938

Structure (SMILES): CCc1cc(C(C)=NOCc2ccc(C3CCCCC3)c(C(F)(F)F)c2)ccc1CN1CC(C(=O)O)C1 [BAF312 (Siponimod)]
- area under growth-rate inhibition curve (BT474-LTR): 0.989
- area under growth-rate inhibition curve (SKBR3-LTR): 0.968
- area under growth-rate inhibition curve (BT474-P): 1.01
- area under growth-rate inhibition curve (MDA-MB-231): 1.01
- area under growth-rate inhibition curve (MDA-MB-468): 0.961
- area under growth-rate inhibition curve (SKBR3-P): 0.99

Structure (SMILES): COc1ccc2c(c1)c(CC(=O)N1CCOCC1)c(C)n2C(=O)c1ccc(Cl)cc1 [BML-190]
- area under growth-rate inhibition curve (BT474-LTR): 1.08
- area under growth-rate inhibition curve (SKBR3-LTR): 1.03
- area under growth-rate inhibition curve (BT474-P): 1.03
- area under growth-rate inhibition curve (MDA-MB-231): 1.01
- area under growth-rate inhibition curve (MDA-MB-468): 1.01
- area under growth-rate inhibition curve (SKBR3-P): 1.02

Structure (SMILES): COc1ccccc1N1CCN(CCN2C(=O)CC3(CCCC3)CC2=O)CC1.[Cl-].[Cl-].[H+].[H+] [BMY 7378]
- area under growth-rate inhibition curve (BT474-LTR): 1.11
- area under growth-rate inhibition curve (SKBR3-LTR): 1.1
- area under growth-rate inhibition curve (BT474-P): 1.03
- area under growth-rate inhibition curve (MDA-MB-231): 1.03
- area under growth-rate inhibition curve (MDA-MB-468): 1.02
- area under growth-rate inhibition curve (SKBR3-P): 0.982
